Consider 10 compounds from ChEMBL document CHEMBL1201862, “PubChem BioAssay data set” (2004).

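Grown in 96-well plates, cells were treated for 48 hours with each compound at five concentrations. Insufficient inhibition: endpoint recorded as highest concentration tested. GI50 = concentration required for 50% inhibition of growth.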 The source made the active and inactive calls. No stated cut-off is given here; in the data, active = GI50 up to about 1.1 µM and inactive = higher. A value given as a limit tells only on which side of the number the result lay.

Among the test systems are EKVX; A549; KM12; OVCAR-5; SK-MEL-5; HCT-116; HL-60; SF-268; MOLT-4; K562; CCRF-CEM; A498; PC-3; MDA-MB-231; NCI-H23; HCC 2998; SF-295; IGROV-1; SNB-75; CAKI-1.
What all share (assay): growth of human tumour cells (NCI), 48 h

As for `CCCCCCCCCC(=O)CC(=O)c1c(O)cc(O)cc1O`, the GI50 in the test on EKVX was 31.5 µM (inactive); in the test on A549, 25.6 µM (inactive); with KM12, 18.1 µM (inactive); in the test with OVCAR-5, 19.4 µM (inactive); in the test with SK-MEL-5 it was 15.3 µM (inactive); in the test with HCT-116, 24.4 µM (inactive). Also, the GI50 in the test with HL-60 was 17.9 µM (inactive); in the test on SF-268 it was 18.4 µM (inactive); in the test on MOLT-4 it was 12.9 µM (inactive); in the test on K562 it was 15.2 µM (inactive); in the test with CCRF-CEM, 34.3 µM (inactive); in the test on A498, 22.6 µM (inactive). Moreover, the GI50 was 17.9 µM (inactive) in the test on PC-3; 28.6 µM (inactive) in the test on MDA-MB-231; 17.3 µM (inactive) with NCI-H23; 18.8 µM (inactive) with HCC 2998; 25.9 µM (inactive) in the test with SF-295; 26.5 µM (inactive) in the test with IGROV-1. In addition, the GI50 in the test with SNB-75 is 22.2 µM (inactive); in the test on CAKI-1 it was 31.1 µM (inactive).
As to `O=C(/C=C/c1ccccc1)Nc1ccccc1SCCCCl`, the GI50 in the test on EKVX was 15.4 µM (inactive); in the test with A549 it was 25 µM (inactive); with KM12, 3.78 µM (inactive); with OVCAR-5, 34 µM (inactive); in the test with SK-MEL-5, 19.3 µM (inactive); with HCT-116, 8.91 µM (inactive). The GI50 in the test on HL-60 is 3.8 µM (inactive); in the test on SF-268, 14.4 µM (inactive); with MOLT-4, 12.7 µM (inactive); with K562 it was 9.66 µM (inactive); in the test with CCRF-CEM, 10 µM (inactive); in the test with A498, 9.08 µM (inactive). Besides, the GI50 in the test with PC-3 was 9.91 µM (inactive); in the test on MDA-MB-231, 11.4 µM (inactive); in the test on NCI-H23, 3.56 µM (inactive); in the test on HCC 2998, 21.6 µM (inactive); in the test on SF-295, 7.89 µM (inactive); in the test on IGROV-1 it was 1.18 µM (inactive). Besides, the GI50 with SNB-75 is 17.7 µM (inactive); in the test on CAKI-1 it was 5.79 µM (inactive).
Regarding `N=C(N)Nc1ccc(CC(N)NCC(=O)O)cc1` (stereo not drawn), the GI50 in the test with EKVX, in the test with A549, in the test on KM12, in the test on OVCAR-5, in the test on SK-MEL-5 and in the test on HCT-116 was > 25 µM (inactive) each time. In addition, the GI50 in the test on HL-60, in the test with SF-268, in the test with MOLT-4, in the test on K562, in the test on CCRF-CEM and in the test with A498 was > 25 µM (inactive) in each case. For the same compound, the GI50 with PC-3, in the test on MDA-MB-231, in the test with NCI-H23, in the test on HCC 2998, in the test with SF-295 and with IGROV-1 was > 25 µM (inactive) throughout. In addition, the GI50 in the test with SNB-75 and in the test with CAKI-1 was > 25 µM (inactive) each time.
For the compound `C/C(=N/NC(=S)Nc1ccccc1Cl)c1cccc(/C(C)=N\NC(=S)Nc2ccccc2Cl)n1`, the GI50 was > 100 µM (inactive) with EKVX; 29.6 µM (inactive) in the test on A549; 7.24 µM (inactive) in the test with KM12; > 100 µM (inactive) in the test on OVCAR-5; 12.4 µM (inactive) in the test on SK-MEL-5; 16.1 µM (inactive) in the test with HCT-116. Also, the GI50 with HL-60 is > 100 µM (inactive); with SF-268 it was > 100 µM (inactive); in the test on MOLT-4, 23.6 µM (inactive); in the test with K562, 18.7 µM (inactive); with CCRF-CEM, 9.79 µM (inactive); in the test on A498, > 100 µM (inactive). The GI50 is 36.1 µM (inactive) in the test on PC-3; 12.2 µM (inactive) in the test on MDA-MB-231; 54.7 µM (inactive) with NCI-H23; > 100 µM (inactive) in the test with HCC 2998; > 100 µM (inactive) in the test with SF-295; 42.2 µM (inactive) in the test with IGROV-1. Besides, the GI50 in the test on SNB-75 and with CAKI-1 was > 100 µM (inactive) each time.
For the compound `CC(=O)c1ccc(Br)cc1NC1=CC(=O)c2ncccc2C1=O`, the GI50 was 6.4 µM (inactive) in the test on EKVX; 2.4 µM (inactive) with A549; 1.83 µM (inactive) with KM12; 13.1 µM (inactive) with OVCAR-5; 0.322 µM (active) with SK-MEL-5; 1.9 µM (inactive) in the test on HCT-116. In addition, the GI50 in the test on HL-60 is 1.64 µM (inactive); with SF-268 it was 7.26 µM (inactive); in the test on MOLT-4 it was 2.29 µM (inactive); in the test with K562, 1.49 µM (inactive); in the test on CCRF-CEM, 3.47 µM (inactive); in the test with A498, 1.57 µM (inactive). Further, the GI50 is 3.95 µM (inactive) with PC-3; 1.88 µM (inactive) in the test on MDA-MB-231; 2 µM (inactive) in the test with NCI-H23; 3.22 µM (inactive) in the test on HCC 2998; 4.62 µM (inactive) in the test with SF-295; 2.69 µM (inactive) in the test on IGROV-1. Moreover, the GI50 was 0.242 µM (active) in the test with SNB-75 and 7.59 µM (inactive) with CAKI-1.
In the case of `O=C1N[C@@H]2c3c(Br)sc(Br)c3C(=O)[C@@H]2O1`, the GI50 in the test with EKVX is 2.13 µM (inactive); with A549, 16.4 µM (inactive); with KM12, 10.7 µM (inactive); with OVCAR-5 it was 13.7 µM (inactive); in the test on SK-MEL-5, 6.59 µM (inactive); in the test on HL-60 it was 0.743 µM (active). For the same compound, the GI50 in the test on SF-268 is 7.66 µM (inactive); with MOLT-4, 1.89 µM (inactive); with K562, 0.887 µM (active); with CCRF-CEM, 1.57 µM (inactive); in the test with A498, 16.7 µM (inactive); in the test with PC-3 it was 6.41 µM (inactive). Further, the GI50 is 2.41 µM (inactive) with MDA-MB-231; 2.83 µM (inactive) in the test on NCI-H23; 3.69 µM (inactive) in the test on HCC 2998; 17.2 µM (inactive) with SF-295; 4.84 µM (inactive) in the test on IGROV-1; 6.14 µM (inactive) in the test on SNB-75. For the same compound, in the test on CAKI-1, the GI50 was 0.877 µM (active).
For `O=C(Nc1ccn(C2CC(I)C(COC(c3ccccc3)(c3ccccc3)c3ccccc3)O2)c(=O)n1)c1ccccc1` (stereo not drawn), the GI50 was 13.2 µM (inactive) in the test with EKVX; 7.83 µM (inactive) with A549; 7.46 µM (inactive) with KM12; > 21.5 µM (inactive) with OVCAR-5; 9.53 µM (inactive) in the test on SK-MEL-5; 6.35 µM (inactive) with HCT-116. Besides, the GI50 with HL-60 is 5.83 µM (inactive); in the test with SF-268, 12 µM (inactive); in the test on MOLT-4 it was 4.13 µM (inactive); in the test on K562 it was 5.28 µM (inactive); in the test on CCRF-CEM, 8.89 µM (inactive); with A498, 7.03 µM (inactive). Moreover, the GI50 with PC-3 is 2.36 µM (inactive); in the test with MDA-MB-231 it was 9.57 µM (inactive); with NCI-H23, 6.89 µM (inactive); in the test with HCC 2998 it was 12.6 µM (inactive); in the test on SF-295, 13.6 µM (inactive); in the test with IGROV-1, 13.3 µM (inactive). For the same compound, the GI50 in the test with SNB-75 was 2.43 µM (inactive); in the test on CAKI-1, 15.6 µM (inactive).
As for `CN(C)c1ccc(C=C2N=C(c3ccccc3)N(c3cc(C(=O)c4ccccc4)ccc3N3C(=O)/C(=C/c4ccc(N(C)C)cc4)N=C3c3ccccc3)C2=O)cc1`, the GI50 in the test with EKVX is 20.5 µM (inactive); in the test with A549 it was 6.31 µM (inactive); in the test on KM12, 3.71 µM (inactive); in the test on OVCAR-5, 35.5 µM (inactive); with SK-MEL-5, 3.42 µM (inactive); in the test on HCT-116, 3.76 µM (inactive). Besides, the GI50 in the test on HL-60 was 5.01 µM (inactive); in the test with SF-268, 14.4 µM (inactive); in the test with MOLT-4, 3.38 µM (inactive); in the test with K562, 3.95 µM (inactive); in the test on CCRF-CEM it was 3.49 µM (inactive); in the test on A498 it was 3.48 µM (inactive). Further, the GI50 is 3.51 µM (inactive) with PC-3; 14.1 µM (inactive) in the test with MDA-MB-231; 3.76 µM (inactive) with HCC 2998; 3.76 µM (inactive) in the test with SF-295; 5.86 µM (inactive) in the test on IGROV-1; 4.78 µM (inactive) with SNB-75. Also, the GI50 in the test on CAKI-1 was 14 µM (inactive).
With `C=CCOc1ccc(C2C(C(=O)OCC)C(=O)CC(C)(O)C2C(=O)OCC)cc1OC` (stereo not drawn), the GI50 with EKVX, in the test with A549, in the test with KM12, in the test on OVCAR-5, in the test with SK-MEL-5 and in the test on HCT-116 was > 100 µM (inactive) in each case. For the same compound, the GI50 in the test with HL-60, in the test with SF-268, in the test with MOLT-4, in the test on K562, in the test on CCRF-CEM and with A498 was > 100 µM (inactive) throughout. Moreover, the GI50 in the test with PC-3, with MDA-MB-231, in the test on NCI-H23, in the test on HCC 2998, in the test on SF-295 and in the test on IGROV-1 was > 100 µM (inactive) throughout. The GI50 in the test with SNB-75 and in the test on CAKI-1 was > 100 µM (inactive) throughout.
As for `CCOC(=O)Oc1cc2c(c(OC)c1OC)-c1ccc(OC)c(=O)cc1C(NC(C)=O)CC2` (stereo not drawn), the GI50 is 19.1 µM (inactive) in the test with EKVX; 0.168 µM (active) in the test with A549; 0.0172 µM (active) with KM12; 2.26 µM (inactive) in the test with OVCAR-5; 0.0116 µM (active) in the test with SK-MEL-5; 0.0149 µM (active) with HCT-116. In addition, the GI50 in the test with HL-60 was < 0.0118 µM (active); with SF-268, 0.0197 µM (active); in the test with MOLT-4 it was 0.0179 µM (active); in the test with K562, 0.0138 µM (active); with CCRF-CEM it was < 0.0122 µM (active); in the test on A498, 0.0541 µM (active). In addition, the GI50 in the test on PC-3 is 0.0278 µM (active); with MDA-MB-231 it was 0.0281 µM (active); in the test with NCI-H23, 0.0187 µM (active); with HCC 2998, 0.0176 µM (active); in the test with SF-295, 0.0574 µM (active); in the test on IGROV-1, 0.0208 µM (active). The values for the GI50 with SNB-75 and in the test with CAKI-1 were 0.0119 µM (active) and 0.239 µM (active), respectively.
